Patent US20120270237A9, “METHODS FOR THE IDENTIFICATION OF KINASE INTERACTING MOLECULES AND FOR THE PURIFICATION OF KINASE PROTEINS” (Cellzone AG, priority 2009, published 2012)

How the values were obtained:
Assay in all cases: Kinobeads competition binding, L-363 cell lysate
Parameters in all cases: endogenous in cells
Details in all cases: 10 μM free compound, L-363 lysate
AMPKa1 = AMPKa1 (Homo sapiens, UniProt Q13131)
Experimental: (§1) To one aliquot of cell lysate 10 μM of the free compound (FIG. 3, CZC31326) was added and allowed to bind to proteins in the lysate. Then the affinity matrix with the immobilized compound was added to capture proteins that were not interacting with the previously added free compound. Beads were separated from the lysate and bead bound proteins were eluted in SDS sample buffer and subsequently separated by SDS-Polyacrylamide gel electrophoresis (FIG. 8). Suitable gel bands were cut out and subjected to in-gel proteolytic digestion with trypsin. The second lysate aliquot was processed identically, however no free compound was added (DMSO solvent control). Peptides originating from samples 1 and 2 were labeled with iTRAQ reagents (iTRAQ 114 and iTRAQ 117) and the combined samples were analyzed with a nano-flow liquid chromatography system coupled online to a tandem mass spectrometer (LC-MS/MS) experiment followed by iTRAQ reporter ion quantification in the MS/MS spectra as described in Example 2.
(§2) For this experiment the human plasma cell leukaemia line L-363 was used (German Collection of Microorganisms and Cell Cultures, DSMZ number ACC49, Braunschweig, Germany). Cells were treated for three hours with 20 μM of the proteasome inhibitor MG132 (Z-Leu-Leu-Leu-al, Sigma C2211) prior to cell harvesting.

TYK2 = TYK2 (Homo sapiens, UniProt P29597)
Sequence of TYK2 (P29597 whole entry): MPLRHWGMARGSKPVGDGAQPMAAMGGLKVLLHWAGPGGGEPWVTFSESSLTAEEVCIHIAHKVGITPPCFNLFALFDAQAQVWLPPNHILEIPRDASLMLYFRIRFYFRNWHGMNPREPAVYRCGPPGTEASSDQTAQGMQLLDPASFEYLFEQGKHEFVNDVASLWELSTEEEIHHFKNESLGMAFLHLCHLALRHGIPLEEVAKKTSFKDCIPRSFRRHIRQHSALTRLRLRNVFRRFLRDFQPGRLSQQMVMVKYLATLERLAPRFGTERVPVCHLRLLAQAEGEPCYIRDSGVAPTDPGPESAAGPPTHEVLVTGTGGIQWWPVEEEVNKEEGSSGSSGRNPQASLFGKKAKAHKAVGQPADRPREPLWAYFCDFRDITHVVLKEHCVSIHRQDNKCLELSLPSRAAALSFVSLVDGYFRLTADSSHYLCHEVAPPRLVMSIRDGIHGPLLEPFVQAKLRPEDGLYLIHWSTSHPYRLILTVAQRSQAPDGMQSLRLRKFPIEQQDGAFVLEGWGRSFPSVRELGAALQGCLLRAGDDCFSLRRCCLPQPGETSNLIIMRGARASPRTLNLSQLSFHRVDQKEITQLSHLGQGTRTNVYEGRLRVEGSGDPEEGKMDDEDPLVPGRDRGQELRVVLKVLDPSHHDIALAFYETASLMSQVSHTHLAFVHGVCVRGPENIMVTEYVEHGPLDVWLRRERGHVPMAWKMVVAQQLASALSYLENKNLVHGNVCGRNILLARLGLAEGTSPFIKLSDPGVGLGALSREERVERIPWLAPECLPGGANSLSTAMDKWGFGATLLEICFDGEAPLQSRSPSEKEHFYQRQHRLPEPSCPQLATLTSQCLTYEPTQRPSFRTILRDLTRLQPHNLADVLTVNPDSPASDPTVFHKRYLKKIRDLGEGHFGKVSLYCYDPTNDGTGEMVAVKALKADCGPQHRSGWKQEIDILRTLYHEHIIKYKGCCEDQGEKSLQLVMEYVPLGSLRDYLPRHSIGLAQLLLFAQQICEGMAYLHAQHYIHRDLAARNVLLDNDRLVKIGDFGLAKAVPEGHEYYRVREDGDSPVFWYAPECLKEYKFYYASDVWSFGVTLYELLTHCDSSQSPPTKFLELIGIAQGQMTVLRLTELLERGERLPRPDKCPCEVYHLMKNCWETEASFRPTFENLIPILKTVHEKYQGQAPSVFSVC
Experimental: as §1, §2

MAP3K5 = target: T1, MAP3K5 (Homo sapiens, UniProt Q99683)
T1 sequence (Q99683 1-1374): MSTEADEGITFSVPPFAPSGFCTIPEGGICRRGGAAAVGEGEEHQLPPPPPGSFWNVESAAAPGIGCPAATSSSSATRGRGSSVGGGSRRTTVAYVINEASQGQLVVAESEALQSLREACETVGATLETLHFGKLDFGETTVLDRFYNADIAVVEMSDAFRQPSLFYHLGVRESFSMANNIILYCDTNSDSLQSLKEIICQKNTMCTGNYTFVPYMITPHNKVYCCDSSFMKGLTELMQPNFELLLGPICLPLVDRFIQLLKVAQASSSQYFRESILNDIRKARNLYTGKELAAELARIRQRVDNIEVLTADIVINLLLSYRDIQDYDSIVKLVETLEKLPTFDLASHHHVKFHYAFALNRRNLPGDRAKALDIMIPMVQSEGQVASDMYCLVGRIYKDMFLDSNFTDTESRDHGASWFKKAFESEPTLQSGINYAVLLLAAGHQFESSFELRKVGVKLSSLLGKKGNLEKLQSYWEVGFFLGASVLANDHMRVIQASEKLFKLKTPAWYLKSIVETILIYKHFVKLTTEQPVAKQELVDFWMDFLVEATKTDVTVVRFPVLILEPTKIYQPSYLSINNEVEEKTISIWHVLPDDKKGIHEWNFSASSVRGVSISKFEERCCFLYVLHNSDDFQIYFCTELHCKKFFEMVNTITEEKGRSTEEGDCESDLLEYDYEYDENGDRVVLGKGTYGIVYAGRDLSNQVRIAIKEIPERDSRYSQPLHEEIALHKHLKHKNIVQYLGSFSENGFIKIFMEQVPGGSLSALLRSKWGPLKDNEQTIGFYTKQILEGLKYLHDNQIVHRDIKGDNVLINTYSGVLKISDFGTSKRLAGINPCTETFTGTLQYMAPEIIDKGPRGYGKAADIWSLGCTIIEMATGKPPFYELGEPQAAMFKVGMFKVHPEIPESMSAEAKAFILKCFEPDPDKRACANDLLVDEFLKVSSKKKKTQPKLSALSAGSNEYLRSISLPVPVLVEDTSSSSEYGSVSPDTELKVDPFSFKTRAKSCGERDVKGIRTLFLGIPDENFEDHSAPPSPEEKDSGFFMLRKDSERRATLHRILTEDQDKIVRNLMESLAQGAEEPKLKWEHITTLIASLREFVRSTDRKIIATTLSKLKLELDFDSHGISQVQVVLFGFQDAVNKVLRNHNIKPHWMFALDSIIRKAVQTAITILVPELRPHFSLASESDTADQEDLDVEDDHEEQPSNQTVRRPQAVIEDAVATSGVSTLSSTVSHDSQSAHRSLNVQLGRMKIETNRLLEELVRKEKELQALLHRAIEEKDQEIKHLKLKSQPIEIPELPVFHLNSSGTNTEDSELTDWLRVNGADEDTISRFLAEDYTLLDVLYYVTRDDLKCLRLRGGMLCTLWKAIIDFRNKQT
Experimental: as §1, §2

Sequence of AMPKa1 (Q13131 whole entry): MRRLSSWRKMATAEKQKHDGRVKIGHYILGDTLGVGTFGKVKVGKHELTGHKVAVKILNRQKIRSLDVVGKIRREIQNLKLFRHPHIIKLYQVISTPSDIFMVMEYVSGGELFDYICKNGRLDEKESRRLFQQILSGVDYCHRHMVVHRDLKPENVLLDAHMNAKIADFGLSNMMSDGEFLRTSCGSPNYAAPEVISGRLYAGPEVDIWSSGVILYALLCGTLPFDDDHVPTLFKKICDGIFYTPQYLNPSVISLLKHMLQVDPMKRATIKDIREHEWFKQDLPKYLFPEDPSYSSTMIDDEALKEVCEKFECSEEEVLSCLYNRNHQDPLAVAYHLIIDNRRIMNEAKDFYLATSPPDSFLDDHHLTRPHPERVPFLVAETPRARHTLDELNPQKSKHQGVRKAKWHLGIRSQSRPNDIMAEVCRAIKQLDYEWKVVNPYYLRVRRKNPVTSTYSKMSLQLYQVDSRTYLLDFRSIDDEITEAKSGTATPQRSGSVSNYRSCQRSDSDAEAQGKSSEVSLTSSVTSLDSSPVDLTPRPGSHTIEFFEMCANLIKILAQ
Sequence of AMPKa1 (Q9Y478 2-270 partner limits assumed): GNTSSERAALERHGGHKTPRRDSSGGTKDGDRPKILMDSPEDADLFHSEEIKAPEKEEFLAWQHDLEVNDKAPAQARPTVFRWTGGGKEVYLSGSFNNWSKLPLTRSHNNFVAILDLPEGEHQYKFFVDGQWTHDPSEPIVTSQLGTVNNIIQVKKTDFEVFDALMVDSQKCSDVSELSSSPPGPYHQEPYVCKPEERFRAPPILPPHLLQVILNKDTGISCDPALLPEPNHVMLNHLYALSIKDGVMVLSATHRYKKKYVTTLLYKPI
Sequence of AMPKa1 (P54619 whole entry partner): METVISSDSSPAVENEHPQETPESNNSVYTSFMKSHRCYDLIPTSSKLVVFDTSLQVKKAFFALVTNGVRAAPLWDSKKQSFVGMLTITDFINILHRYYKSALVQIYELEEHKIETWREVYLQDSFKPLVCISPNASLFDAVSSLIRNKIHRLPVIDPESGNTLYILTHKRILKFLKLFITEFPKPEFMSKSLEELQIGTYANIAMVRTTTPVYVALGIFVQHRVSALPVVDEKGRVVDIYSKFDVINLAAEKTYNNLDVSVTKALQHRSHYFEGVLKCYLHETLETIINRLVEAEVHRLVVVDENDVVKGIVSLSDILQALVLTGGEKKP

inhibition at 10 µM (AMPKa1): 97.7%
Competition % (TYK2): 96.9%
inhibition at 10 µM (MAP3K5): 91.3%
SMILES: CS(=O)(=O)Nc1ccccc1Nc1nc(Nc2cccc(OCCN)c2)ncc1Cl [CZC31326, N-(2-(2-(3-(2-aminoethoxy)phenylamino)-5-chloropyrimidin-4-ylamino)phenyl)methanesulfonamide]
